Where two headings read alike, the source gives them in different places.
Key:
[1] = system: TA98, TA1535, TA1537, TA1538, TA100 and W2P2uvr; assay: Ames Test (in the presence of S9); assay type: cell-based, Salmonella typhimurium; details: for Ames Test, specific mutagenic activity: the higher the value, the higher the mutagenicity
Text: Six Salmonella typhimuriumstrai strains, TA98, TA1535, TA1537, TA1538, TA100 and W2P2uvr were used in this experiment.

HIV-1 RF = assay: Antiviral assay, Experimental Protocol I (compound added after infection); assay type: cell-based; details: Human immunodeficiency virus 1, 240 h, p24 ELISA, read-out: % Inhibition (after day 10); for inhibition at 1.25 µg/mL: 1.25 μg/ml; for inhibition at 2.5 µg/mL: 2.5 μg/ml; for inhibition at 5 µg/mL: 5 μg/ml; for inhibition at 0.6 µg/mL: 0.6 μg/ml
Protocol: HIV-1 infectivity studies were conducted in CEM, H9, MT2 cells and peripheral blood mononuclear cells (PBMC). CEM, H9 and MT2 were grown in RPMI1640 medium, 10% heat-inactivated fetal bovine serum (FBS). PBMCs were stimulated with 4 μg/ml PHA for 48 hours in RPMI1640, 10% FBS before HIV-1 infection. After HIV-1 infection, PBMCs were maintained in RPMI 1640, 10% FBS and 10 10 units/ml IL-2. The major HIV-1 isolates used were MN, IIIB, SF2, AZT-sensitive A018 and AZT-resistant A018 provided by NIH AIDS research and reference reagent program. Two major antiviral assays were developed to determine the antiviral activities of the compounds of this invention (as inhibitors).
I. The cells were infected with HIV-1 RF or IIIB at an infectivity multiplicity (moi) of 0.001 in the absence of a compound of this invention for one hour. HIV-1 infected cells were washed once with PBS, resuspended in RPMI1640, 10% FBS medium and distributed in 24-well culture dishes (5×10^5 cells per well) in the presence of a compound of this invention as inhibitor. […]

LD50, intravenous, mice = assay type: in vivo; details: mouse, in vivo, female mice, mortalities within 1 week
Protocol: The test material was administered intravenously to 5 female mice in five increasing doses. Mortalities were recorded within 1 week, and the LD50 was determined with the aid of statistical calculations.

SMILES | Ames Test result [1] | inhibition at 1.25 µg/mL (HIV-1 RF; 10% FCS) [%] | inhibition at 2.5 µg/mL (HIV-1 RF; 10% FCS) [%] | inhibition at 5 µg/mL (HIV-1 RF; 10% FCS) [%] | LD50 at 168 h (LD50, intravenous, mice) [mg/kg] | further results
Cc1cc(N=Nc2c(S(=O)(=O)O)cc3cc(S(=O)(=O)O)cc(NC(=O)c4cccc(Cl)c4Cl)c3c2O)c(C)cc1N=Nc1c(S(=O)(=O)O)cc2cc(S(=O)(=O)O)cc(NC(=O)c3ccc(Cl)cc3Cl)c2c1O [Compound 31] | Negative | 0 | 88 | 100 |  | 
COc1cc(N=Nc2c(O)ccc3ccc(S(=O)(=O)O)cc23)c(OC)cc1N=Nc1c(S(=O)(=O)O)cc2cc(S(=O)(=O)O)cc(NC(=O)c3ccc(C#N)cc3)c2c1O [Compound 37] | Negative |  |  |  |  | 
COc1cc(N=Nc2c(O)ccc3ccc(S(=O)(=O)O)cc23)c(OC)cc1N=Nc1c(S(=O)(=O)O)cc2cc(S(=O)(=O)O)cc(NC(=O)c3ccc4ccccc4c3)c2c1O [Compound 39] | Negative |  |  |  |  | 
COc1cc(N=Nc2c(O)ccc3ccc(S(=O)(=O)O)cc23)c(OC)cc1N=Nc1c(S(=O)(=O)O)cc2cc(S(=O)(=O)O)cc(NC(=O)Cc3cccc4ccccc34)c2c1O [Compound 42] | Negative | 28 | 99 | 99 |  | 
COc1cc(N=Nc2c(S(=O)(=O)O)cc3cc(S(=O)(=O)O)cc(NC(=O)c4ccc(C)cc4)c3c2O)c(OC)cc1N=Nc1c(S(=O)(=O)O)cc2cc(S(=O)(=O)O)cc(NC(=O)c3ccccc3)c2c1O [Compound 23] | Negative |  |  |  | 130 | 
COc1cc(N=Nc2c(S(=O)(=O)O)cc3cc(S(=O)(=O)O)cc(NC(=O)c4ccc(Cl)cc4Cl)c3c2O)c(OC)cc1N=Nc1c(S(=O)(=O)O)cc2cc(S(=O)(=O)O)cc(NC(=O)Cc3cccc4ccccc34)c2c1O [Compound 20] | Positive |  |  |  | 150 | Ames Test, specific mutagenic activity [1]: 0.08 colony no/μg
COc1cc(N=Nc2c(S(=O)(=O)O)cc3cc(S(=O)(=O)O)cc(NC(=O)c4ccccc4OC)c3c2O)c(OC)cc1N=Nc1c(S(=O)(=O)O)cc2cc(S(=O)(=O)O)cc(NC(=O)c3ccccc3)c2c1O [Compound 25] | Negative |  |  |  | 160 | 
COc1cc(N=Nc2c(S(=O)(=O)O)cc3cc(S(=O)(=O)O)cc(NC(=O)c4cccc5ccccc45)c3c2O)c(OC)cc1N=Nc1c(S(=O)(=O)O)cc2cc(S(=O)(=O)O)cc(NC(=O)c3ccc(C(F)(F)F)cc3)c2c1O [Compound 19] | Negative |  |  |  | 140 | 
COc1cc(N=Nc2c(S(=O)(=O)O)cc3cc(S(=O)(=O)O)cc(NC(=O)c4cccc(Cl)c4Cl)c3c2O)c(OC)cc1N=Nc1c(S(=O)(=O)O)cc2cc(S(=O)(=O)O)cc(NC(=O)c3cccc(Cl)c3Cl)c2c1O [Compound 8] | Negative | 99 | 99 | 99 | 160 | inhibition at 0.6 µg/mL (HIV-1 RF; 10% FCS): 87%; inhibition at 1.25 µg/mL (HIV-1 RF; 50% Human Serum): 0%; inhibition at 2.5 µg/mL (HIV-1 RF; 50% Human Serum): 0%; inhibition at 5 µg/mL (HIV-1 RF; 50% Human Serum): 95%
COc1cc(N=Nc2c(S(=O)(=O)O)cc3cc(S(=O)(=O)O)cc(NC(=O)c4ccccc4)c3c2O)c(OC)cc1N=Nc1c(S(=O)(=O)O)cc2cc(S(=O)(=O)O)cc(NC(=O)Nc3ccc(F)cc3)c2c1O [Compound 24] | Negative |  |  |  | 140 | 
COc1cc(N=Nc2c(S(=O)(=O)O)cc3cc(S(=O)(=O)O)cc(NC(=O)c4cccc(Cl)c4Cl)c3c2O)c(OC)cc1N=Nc1c(S(=O)(=O)O)cc2cc(S(=O)(=O)O)cc(NC(=O)Cc3ccccc3)c2c1O [Compound 2] | Negative | 60 | 73 | 98 | 150 | 
COc1cc(N=Nc2c(O)ccc3ccc(S(=O)(=O)O)cc23)c(OC)cc1N=Nc1c(S(=O)(=O)O)cc2cc(S(=O)(=O)O)cc(NC(=O)c3cccnc3)c2c1O [Compound 40] | Negative |  |  |  |  | 
COc1cc(N=Nc2c(O)ccc3ccc(S(=O)(=O)O)cc23)c(OC)cc1N=Nc1c(S(=O)(=O)O)cc2cc(S(=O)(=O)O)cc(NC(=O)c3cccc4ccccc34)c2c1O [Compound 38] | Negative | 99 | 99 | 100 |  | 
COc1cc(N=Nc2c(S(=O)(=O)O)cc3cc(S(=O)(=O)O)cc(NC(=O)c4cccc([N+](=O)[O-])c4)c3c2O)c(OC)cc1N=Nc1c(S(=O)(=O)O)cc2cc(S(=O)(=O)O)cc(NC(=O)c3ccccc3)c2c1O [Compound 22] | Positive |  |  |  | 140 | Ames Test, specific mutagenic activity [1]: 0.4 colony no/μg
O=C(Nc1cc(S(=O)(=O)O)cc2cc(S(=O)(=O)O)c(N=Nc3ccc(N=Nc4c(O)ccc5ccc(S(=O)(=O)O)cc45)cc3Cl)c(O)c12)c1ccccc1 [Compound 45] |  | 92 | 99 | 99 |  | 
COc1cc(N=Nc2c(S(=O)(=O)O)cc3cc(S(=O)(=O)O)cc(NC(=O)c4cccc(Cl)c4Cl)c3c2O)c(OC)cc1N=Nc1c(S(=O)(=O)O)cc2cc(S(=O)(=O)O)cc(NC(=O)c3cc(Cl)ccc3Cl)c2c1O [Compound 9] | Negative | 99 | 99 | 100 | 150 | inhibition at 0.6 µg/mL (HIV-1 RF; 10% FCS): 63%; inhibition at 0.6 µg/mL (HIV-1 RF; 50% Human Serum): 0%; inhibition at 1.25 µg/mL (HIV-1 RF; 50% Human Serum): 0%; inhibition at 2.5 µg/mL (HIV-1 RF; 50% Human Serum): 16%; inhibition at 5 µg/mL (HIV-1 RF; 50% Human Serum): 90%
O=C(Nc1cc(S(=O)(=O)O)cc2cc(S(=O)(=O)O)c(N=Nc3ccc(N=Nc4c(S(=O)(=O)O)cc5cc(S(=O)(=O)O)cc(NC(=O)c6cccc(Cl)c6Cl)c5c4O)cc3)c(O)c12)c1ccc(Cl)cc1Cl [Compound 29] | Negative |  |  |  |  | 
COc1cc(N=Nc2c(O)ccc3ccc(S(=O)(=O)O)cc23)c(OC)cc1N=Nc1c(S(=O)(=O)O)cc2cc(S(=O)(=O)O)cc(NC(=O)c3ccc(Cl)cc3Cl)c2c1O [Compound 34] | Negative |  |  |  |  | 
CCC(C)(C)c1ccc(OCC(=O)Nc2cc(S(=O)(=O)O)cc3cc(S(=O)(=O)O)c(N=Nc4cc(OC)c(N=Nc5c(O)ccc6ccc(S(=O)(=O)O)cc56)cc4OC)c(O)c23)c(C(C)(C)CC)c1 [Compound 43] | Negative | 0 | 0 | 99 |  | 
COc1cc(N=Nc2c(S(=O)(=O)O)cc3cc(S(=O)(=O)O)cc(NC(=O)c4ccc(C#N)cc4)c3c2O)c(OC)cc1N=Nc1c(S(=O)(=O)O)cc2cc(S(=O)(=O)O)cc(NC(=O)c3ccccc3)c2c1O [Compound 26] | Negative |  |  |  | 150 | 
O=C(Nc1cc(S(=O)(=O)O)cc2cc(S(=O)(=O)O)c(N=Nc3ccc(N=Nc4c(S(=O)(=O)O)cc5cc(S(=O)(=O)O)cc(NC(=O)c6cccc(Cl)c6Cl)c5c4O)c(Cl)c3)c(O)c12)c1ccc(Cl)cc1Cl [Compound 30] | Negative |  |  |  |  | 
COc1cc(N=Nc2c(O)ccc3ccc(S(=O)(=O)O)cc23)c(OC)cc1N=Nc1c(S(=O)(=O)O)cc2cc(S(=O)(=O)O)cc(NC(=O)COc3ccccc3)c2c1O [Compound 41] | Negative |  |  |  |  | 
COc1cc(N=Nc2c(O)ccc3ccc(S(=O)(=O)O)cc23)c(OC)cc1N=Nc1c(S(=O)(=O)O)cc2cc(S(=O)(=O)O)cc(NC(=O)c3cccc(C(F)(F)F)c3)c2c1O [Compound 36] | Negative |  |  |  |  | 

Reference: patent publication US5589510A, “Method for inhibiting retroviral infection by administering a naphthalenesulfonic acid compound” (priority 1995, dated 1996)
